Laboratory results published in the SangsterLogP compilation.

Assay: method code SF-AS, from PMID: 744242
Conditions: pH 5.6

SMILES	logD
CCCCn1nc2ccccc2n1	3.12
CCCC(C)n1nnc2ccccc21 (stereo not drawn)	2.95
CCCCCCn1nc2ccccc2n1	4.24
Cn1nc2ccccc2n1	1.64
CC(C)n1nnc2ccccc21	1.98
CCC(C)n1nnc2ccccc21 (stereo not drawn)	2.31
NC(=O)Cn1nc2ccccc2n1	0.28
NC(=O)CCCCn1nc2ccccc2n1	1.01
Cn1nnc2ccccc21	1.13
CCCCC(C)n1nnc2ccccc21 (stereo not drawn)	3.44
CCn1nnc2ccccc21	1.58
CCCn1nc2ccccc2n1	2.53
NC(=O)CCn1nc2ccccc2n1	0.66
CCn1nc2ccccc2n1	2.1
OCCCn1nc2ccccc2n1	1.4
NC(=O)Cn1nnc2ccccc21	-0.11
CCC(C)n1nc2ccccc2n1 (stereo not drawn)	2.95
CCCCC(C)n1nc2ccccc2n1 (stereo not drawn)	3.78
CCCC(C)n1nc2ccccc2n1 (stereo not drawn)	3.42
CCCCCn1nc2ccccc2n1	3.63
OCCn1nc2ccccc2n1	0.92
NC(=O)CCCn1nc2ccccc2n1	0.78
CC(C)n1nc2ccccc2n1	2.54
CCOC(=O)Cn1nc2ccccc2n1	1.85

Next, values leading:

logD	SMILES
2.41	CCOC(=O)CCCn1nc2ccccc2n1
0.79	NC(=O)CCCCCn1nnc2ccccc21
0.37	NC(=O)CCCn1nnc2ccccc21
2.2	CCOC(=O)CCCCn1nnc2ccccc21
2.13	CCCn1nnc2ccccc21
2.85	CCOC(=O)CCCCn1nc2ccccc2n1
1.6	CCOC(=O)CCn1nnc2ccccc21
0.91	OCCCn1nnc2ccccc21
0.58	NC(=O)CCCCn1nnc2ccccc21
3.7	CCCCCCn1nnc2ccccc21
2.68	CCOC(=O)CCCCCn1nnc2ccccc21
3.17	CCOC(=O)CCCCCn1nc2ccccc2n1
0.5	OCCn1nnc2ccccc21
1.86	CCOC(=O)CCCn1nnc2ccccc21
1.41	NC(=O)CCCCCn1nc2ccccc2n1
3.22	CCCCCn1nnc2ccccc21
2.57	CCCCn1nnc2ccccc21
1.3	CCOC(=O)Cn1nnc2ccccc21
2.12	CCOC(=O)CCn1nc2ccccc2n1
